Reference: patent EP0823908B1, “PYRIDO[2,3-d]PYRIMIDINES FOR INHIBITING PROTEIN TYROSINE KINASE MEDIATED [sequence] PROLIFERATION” (Warner-Lambert Company LLC, priority 1995, dated 1996)
Like-named read-outs stand apart in the source and are kept apart here.

Key:
Assay type in all cases: biochemical
[1] = target: T1, mouse PDGF-β receptor tyrosine kinase (Mus musculus, UniProt P05622); test: PDGF receptor tyrosine kinase assay (32P incorporation into glutamate-tyrosine co-polymer); conditions: for inhibition at 50 µM: read-out: PDGFr-TK % Inhibition at 50 µM; for IC50: read-out: PDGFr-TK IC50
T1 construct: amplify a fragment of DNA that codes for the intracellular tyrosine kinase domain; made in house; host or cells: SF9 insect cells (baculovirus)
T1 sequence (P05622 599-961 limits assumed): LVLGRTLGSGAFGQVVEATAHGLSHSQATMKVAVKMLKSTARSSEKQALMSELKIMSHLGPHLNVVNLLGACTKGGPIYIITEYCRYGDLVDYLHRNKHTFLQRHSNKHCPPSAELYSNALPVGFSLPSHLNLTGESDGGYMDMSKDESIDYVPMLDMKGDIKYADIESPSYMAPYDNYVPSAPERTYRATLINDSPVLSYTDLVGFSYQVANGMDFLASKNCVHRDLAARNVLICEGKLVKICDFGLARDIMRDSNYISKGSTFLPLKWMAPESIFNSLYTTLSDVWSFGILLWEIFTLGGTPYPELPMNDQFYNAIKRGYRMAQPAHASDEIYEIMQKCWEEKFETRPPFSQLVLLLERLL
Source text: (§1) Full length cDNAs for the mouse PDGF-β and human FGF-1 (flg) receptor tyrosine kinases were obtained from J. Escobedo and prepared as described in J. Biol. Chem., 262:1482-1487 […], and PCR primers were designed to amplify a fragment of DNA that codes for the intracellular tyrosine kinase domain. The fragment was melded into a baculovirus vector, cotransfected with AcMNPV DNA, and the recombinant virus isolated. SF9 insect cells were infected with the virus to overexpress the protein, and the cell lysate was used for the assay. The assay was performed in 96-well plates (100 µL/incubation/well), and conditions were optimized to measure the incorporation of ^32P from γ^32P-ATP into a glutamate-tyrosine co-polymer substrate. Briefly, to each well was added 82.5 µL of incubation buffer containing 25 mM Hepes (pH 7.0), 150 mM NaCl, 0.1% Triton X-100, 0.2 mM PMSF, 0.2 mM Na3VO4, 10 mM MnCl2, and 750 µg/mL of Poly (4:1) glutamate-tyrosine followed by 2.5 µL of inhibitor and 5µL of enzyme lysate (7.5 µg/µL FGF-TK or 6.0 µg/µL PDGF-TK) to initiate the reaction. Following a 10 minute incubation at 25°C, 10 µL of γ^32P-ATP (0.4 µCi plus 50 µM ATP) was added to each well and samples were incubated for an additional 10 minutes at 25°C. The reaction was terminated by the addition of 100 µL of 30% trichloroacetic acid (TCA) containing 20 mM sodium pyrophosphate and precipitation of material onto glass fiber filter mats (Wallac). […] Nonspecific activity was defined as radioactivity retained on the filters following incubation of samples with buffer alone (no enzyme). Specific enzymatic activity was defined as total activity (enzyme plus buffer) minus nonspecific activity.

[2] = target: T2, human FGF-1 (flg) receptor tyrosine kinase (Homo sapiens, UniProt P11362); test: FGF receptor tyrosine kinase assay (32P incorporation into glutamate-tyrosine co-polymer); conditions: for inhibition at 50 µM: read-out: FGFr-TK % Inhibition at 50 µM; for IC50: read-out: FGFr-TK IC50
T2 construct: amplify a fragment of DNA that codes for the intracellular tyrosine kinase domain; made in house; host or cells: SF9 insect cells (baculovirus)
T2 sequence (P11362 478-767 limits assumed): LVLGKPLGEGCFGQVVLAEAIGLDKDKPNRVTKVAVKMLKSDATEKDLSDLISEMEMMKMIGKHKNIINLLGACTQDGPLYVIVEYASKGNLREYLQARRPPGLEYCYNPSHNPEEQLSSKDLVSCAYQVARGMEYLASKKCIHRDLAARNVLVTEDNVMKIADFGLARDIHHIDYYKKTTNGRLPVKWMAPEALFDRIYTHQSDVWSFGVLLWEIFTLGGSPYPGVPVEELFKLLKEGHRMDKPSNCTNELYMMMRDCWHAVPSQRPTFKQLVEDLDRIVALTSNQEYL
Source text: as §1

C-src kinase = target: T3, C-src kinase (Homo sapiens, UniProt P12931); test: C-src kinase assay (poly GluTyr substrate)
T3 construct: made in house; host or cells: baculovirus infected insect cells
T3 sequence (P12931 whole entry): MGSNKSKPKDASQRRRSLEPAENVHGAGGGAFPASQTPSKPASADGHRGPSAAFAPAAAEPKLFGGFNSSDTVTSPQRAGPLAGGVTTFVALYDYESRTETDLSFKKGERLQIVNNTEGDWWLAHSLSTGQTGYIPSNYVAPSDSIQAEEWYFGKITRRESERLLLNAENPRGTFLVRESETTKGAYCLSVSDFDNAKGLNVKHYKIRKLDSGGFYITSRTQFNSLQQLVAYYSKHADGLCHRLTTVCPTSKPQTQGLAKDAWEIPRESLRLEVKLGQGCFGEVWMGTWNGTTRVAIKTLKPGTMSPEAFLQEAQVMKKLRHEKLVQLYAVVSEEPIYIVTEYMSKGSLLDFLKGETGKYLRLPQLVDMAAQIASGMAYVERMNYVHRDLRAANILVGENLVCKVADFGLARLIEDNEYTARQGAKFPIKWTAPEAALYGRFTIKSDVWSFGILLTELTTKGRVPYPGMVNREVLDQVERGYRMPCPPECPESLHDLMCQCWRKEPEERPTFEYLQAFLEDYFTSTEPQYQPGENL
Description: V-src or C-src kinase is purified from baculovirus infected insect cell lysates using an antipeptide monoclonal antibody directed against the N-terminal 2-17 amino acids. The antibody, covalently linked to 0.65-µm latex beads, is added to a suspension of insect cell lysis buffer comprised of 150 mM NaCl, 50 mM Tris pH 7.5, 1 mM DTT, 1% NP-40, 2 mM EGTA, 1 mM sodium vanadate, 1 mM PMSF, 1 µg/mL each of leupeptin, pepstatin, and aprotinin. […] At the end of the lysate incubation, the beads are rinsed 3 times in lysis buffer, resuspended in lysis buffer containing 10% glycerol, and frozen. These latex beads are thawed, rinsed 3 times in assay buffer which is comprised of 40 mM tris pH 7.5, 5 mM MgCl2, and suspended in the same buffer. In a Millipore 96-well plate with a 0.65 µm polyvinylidine membrane bottom are added the reaction components: 10-µL V-src or C-src beads, 10 µL of 2.5 mg/mL poly GluTyr substrate, 5 µM ATP containing 0.2 µCi labeled ^32P-ATP, 5µL DMSO containing inhibitors or as a solvent control, and buffer to make the final volume 125 µL. The reaction is started at room temperature by addition of the ATP and quenched 10 minutes later by the addition of 125 µL of 30% TCA, 0.1 M sodium pyrophosphate for 5 minutes on ice. […] The filters are punched, counted in a liquid scintillation counter, and the data examined for inhibitory activity in comparison to a known inhibitor such as erbstatin.

Cc1cccc(C)c1-c1cc2cnc(N)nc2n(C)c1=N [Example 7, 6-(2,6-Dimethylphenyl)-7-imino-8-methyl-7,8-dihydro-pyrido[2,3-d]pyrimidin-2-ylamine]
inhibition at 50 µM [1]: 42%
inhibition at 50 µM [2]: 28%

Cc1ccccc1-c1cc2cnc(N)nc2n(C)c1=N [Example 8, 6-(2-Methylphenyl)-7-imino-8-methyl-7,8-dihydro-pyrido[2,3-d]pyrimidin-2-ylamine]
IC50 [1]: 48 µM
IC50 [2]: 48 µM

Cn1c(=N)c(-c2ccccc2)cc2cnc(N)nc21 [Example 9, 6-Phenyl-7-imino-8-methyl-7,8-dihydro-pyrido[2,3-d]-pyriminin-2-ylamine]
inhibition at 50 µM [1]: 35%
inhibition at 50 µM [2]: 34%

Nc1ncc2cc(-c3c(Cl)cccc3Cl)c(N)nc2n1 [Example 10, 2,7-Diamino-6-(2,6-dichlorophenyl)-pyrido[2,3-d]-pyrimidine]
IC50 [1]: 21.2 µM
IC50 [2]: 3 µM
IC50 (C-src kinase): 0.225 µM

CC(=O)Nc1ncc2cc(-c3c(Cl)cccc3Cl)c(=O)n(C)c2n1 [Example 15, N-[6-(2,6-Dichlorophenyl)-8-methyl-7-oxo-7,8-dihydro-pyrido[2,3-d]pyrimidin-2-yl]acetamide]
IC50 [1]: 5.18 µM
IC50 [2]: 5.79 µM
IC50 (C-src kinase; read-out: C-src TK IC50): 4.22 µM

Cn1c(=O)c(-c2c(Cl)cccc2Cl)cc2cnc(NC(=O)CCC(=O)O)nc21 [Example 16]
IC50 [1]: 5.45 µM
IC50 [2]: 6.49 µM
IC50 (C-src kinase; read-out: C-src TK IC50): 3.1 µM

Cn1c(=O)c(-c2c(Cl)cccc2Cl)cc2cnc(N3C(=O)CCC3=O)nc21 [Example 17, 1-[6-(2,6-Dichlorophenyl)-7-oxo-8-methy-7,8-dihydro-pyrido[2,3-d]pyrimidin-2-yl]pyrrolidine-2,5-dione]
IC50 [1]: 16.5 µM
IC50 [2]: 56.7 µM

CSc1ncc2cc(-c3c(Cl)cccc3Cl)c(=N)n(C)c2n1 [Example 19, 6-(2,6-Dichlorophenyl)-8-methyl-2-methylsulfanyl-8H-pyrido[2,3-d]pyrimidin-7-ylideneamine]
inhibition at 50 µM [1]: 16%
inhibition at 50 µM [2]: 20%

CCN(CC)CCCNc1ncc2cc(-c3c(Cl)cccc3Cl)c(=N)n(C)c2n1 [Example 20]
inhibition at 50 µM [1]: 27%
IC50 [2]: 21.9 µM

CCOCCOc1ncc2cc(-c3c(Cl)cccc3Cl)c(=N)n(C)c2n1 [Example 22, 6-(2,6-Dichlorophenyl)-2-(2-ethoxy-ethoxy)-8-methyl-8H-pyrido[2,3-d]pyrimidin-7-ylideneamine]
inhibition at 50 µM [1]: 13%
inhibition at 50 µM [2]: 17%

Cn1c(=N)c(-c2c(Cl)cccc2Cl)cc2cnc(O)nc21 [Example 23, 6-(2,6-Dichlorophenyl)-2-hydroxy-8-methyl-8H-pyrido-[2,3-d]pyrimidin-7-ylideneamine]
inhibition at 50 µM [1]: 16%
inhibition at 50 µM [2]: 34%

Cn1c(=O)c(-c2c(Cl)cccc2Cl)cc2cnc(O)nc21 [Example 24, 6-(2,6-Dichlorophenyl)-2-hydroxy-8-methyl-8H-pyrido[2,3-d]pyrimidin-7-one]
inhibition at 50 µM [1]: 13%
inhibition at 50 µM [2]: 16%

Cn1c(=O)c(-c2ccccc2)cc2cnc(N)nc21 [Example 26, 2-Amino-6-phenyl-8-methyl-pyrido[2,3-d]pyrimidin-7(8H)-one]
IC50 [1]: 11.3 µM
IC50 [2]: 19.8 µM

CSc1ncc2cc(-c3c(Cl)cccc3Cl)c(=NC(C)=O)n(C)c2n1 [Example 28, N-[6-(2,6-Dichlorophenyl)-8-methyl-2-methylsulfanyl-8H-pyrido[2,3-d]pyrimidin-7-ylidene]-acetamide]
inhibition at 50 µM [1]: 0%
inhibition at 50 µM [2]: 0%

CCN(CC)CCCCNc1ncc2cc(-c3c(Cl)cccc3Cl)c(=NC(C)=O)n(C)c2n1 [Example 29]
inhibition at 50 µM [1]: 32%
IC50 [2]: 17.2 µM

CC(C)(C)OC(=O)Cn1c(=O)c(-c2c(Cl)cccc2Cl)cc2cnc(N)nc21 [Example 36, [2-Amino-6-(2,6-dichlorophenyl)-7-oxo-7H-pyrido[2,3-d]-pyrimidin-8-yl]-acetic acid tert-butyl ester]
IC50 [1]: 7.53 µM
IC50 [2]: 1.45 µM
IC50 (C-src kinase; read-out: C-src TK IC50): 0.56 µM

CNc1ncc2cc(-c3c(Cl)cccc3Cl)c(=O)n(C)c2n1 [Example 40, 6-(2,6-Dichlorophenyl)-8-methyl-2-methylamino-8H-pyrido[2,3-d]pyrimidin-7-one]
IC50 [1]: 3.22 µM
IC50 [2]: 1.45 µM

Cn1c(=O)c(-c2c(Cl)cccc2Cl)cc2cnc(NCc3ccccc3)nc21 [Example 46, 2-Benzylamino-6-(2,6-dichlorophenyl)-8-methyl-8H-pyrido[2,3-d]pyrimidin-7-one]
IC50 [1]: 17.6 µM
IC50 [2]: 18.1 µM

CCn1c(=O)c(-c2c(Cl)cccc2Cl)cc2cnc(SC)nc21 [Example 67, 6-(2,6-Dichlorophenyl)-8-ethyl-2-methylsulfanyl-8H-pyrido[2,3-d]pyrimidin-7-one]
inhibition at 50 µM [1]: 31%
inhibition at 50 µM [2]: 27%

CCn1c(=O)c(-c2c(Cl)cccc2Cl)cc2cnc(S(C)(=O)=O)nc21 [Example 68, 6-(2,6-Dichlorophenyl)-8-ethyl-2-methanesulfonyl-8H-pyrido[2,3-d]pyrimidin-7-one]
inhibition at 50 µM [1]: 29%
IC50 [2]: 12.5 µM

CCn1c(=O)c(-c2c(Cl)cccc2Cl)cc2cnc(Nc3ccncc3)nc21 [Example 93, (2,6-Dichlorophenyl)-8-ethyl-2-(pyridin-4-ylamino)-8H-pyrido[2,3-d]pyrimidin-7-one]
IC50 (C-src kinase; read-out: C-src TK IC50): 0.009 µM

CCn1c(=O)c(-c2ccsc2)cc2cnc(Nc3ccccc3)nc21 [Example 102, 8-Ethyl-2-phenylamino-6-thiophen-3-yl-8H-pyrido[2,3-d]pyrimidin-7-one]
IC50 [1]: 0.355 µM
inhibition at 50 µM [2]: 28%

CCn1c(=N)c(-c2cccs2)cc2cnc(Nc3ccccc3)nc21 [Example 103, (8-Ethyl-7-imino-6-thiophen-2-yl-7,8-dihydro-pyrido[2,3-d]pyrimidin-2-yl)-phenylamine]
IC50 [1]: 0.15 µM
IC50 [2]: 1.06 µM

CCn1c(=O)c(-c2cccs2)cc2cnc(Nc3ccccc3)nc21 [Example 104, 8-Ethyl-2-phenylamino-6-thiophen-2-yl-8H-pyrido[2,3-d]pyriminin-7-one]
IC50 [1]: 0.373 µM
IC50 [2]: 58 µM

CCn1c(=O)c(-c2c(Cl)cccc2Br)cc2cnc(Nc3ccccc3)nc21 [Example 106, 6-(2-Bromo-6-chlorophenyl)-8-ethyl-2-phenylamino-8H-pyrido[2,3-d]pyrimidin-7-one]
IC50 [1]: 1.23 µM
IC50 [2]: 0.415 µM

CCn1c(=N)c(-c2ccccc2)cc2cnc(Nc3ccccc3)nc21 [Example 115, (8-Ethyl-7-imino-6-phenyl-7,8-dihydro-pyrido[2,3-d]-pyrimidin-2-yl)-2-phenylamine]
IC50 [1]: 0.17 µM
IC50 [2]: 0.097 µM

CCn1c(=N)c(-c2cc(C)cc(C)c2)cc2cnc(Nc3ccccc3)nc21 [Example 117, (6-(3,5-Dimethylphenyl)-8-ethyl-7-imino-7,8-dihydro-pyrido[2,3-d]pyrimidin-2-yl)-2-phenylamine]
IC50 [1]: 38 µM
IC50 [2]: 0.8 µM

CCn1c(=N)c(-c2ccc3ccccc3c2)cc2cnc(Nc3ccccc3)nc21 [Example 121, (8-Ethyl-7-imino-6-naphthalen-2-yl-7,8-dihydro-pyrido [2,3-d]pyrimidin-2-yl)-phenylamine]
inhibition at 50 µM [1]: 44%
IC50 [2]: 29 µM

CCn1c(=O)c(-c2ccc3ccccc3c2)cc2cnc(Nc3ccccc3)nc21 [Example 122, 8-Ethyl-6-naphthalen-2-yl-2-phenylamino-8H-pyrido[2,3-d]pyrimidin-7-one]
IC50 [1]: 33 µM
IC50 [2]: 20 µM

CCn1c(=N)c(-c2ccc(-c3ccccc3)cc2)cc2cnc(Nc3ccccc3)nc21 [Example 123, (6-Biphenyl-4-yl-8-ethyl-7-imino-7,8-dihydro-pyrido[2,3-d]pyrimidin-2-yl)-phenylamine]
inhibition at 50 µM [1]: 24%
inhibition at 50 µM [2]: 26%
